In patent US20090291964A1, “Potentiators of Antibacterial Activity” (priority 2003, published 2009):
Read-outs that look alike come from different tables or passages of the source.

Key:
Assay type in all cases: cell-based
S. aureus ATCC 29213 = assay: MIC by NCCLS microdilution, antibacterial agents with and without EPI; conditions: for MIC: Staphylococcus aureus; for MIC in the presence of 4X MEC of EPI, VX-710: VX-710 100 μg/ml; for MIC in the presence of 4X MEC of EPI, VX-853: VX-853 6.25 μg/ml; for MIC in the presence of 4X MEC of EPI, reserpine: reserpine 25 μg/ml
Description: 3% sterile laked horse blood (Quad Five, Ryegate, Mont.) was added to assays for E. faecalis and S. Pneumoniae. A final concentration of 1% DMSO was present in all assays. […]
A-106 and C-9 were tested at their respective MECs in combination with a variety of different classes of antibiotics against S. aureus ATCC 29213 (Table 2).

[1] = tested on: S. aureus SA-1199 (clinical isolate, susceptible); assay: MIC of fluoroquinolones with and without EPI
Source text: (§1) A variety of strains may be used in these experiments, including, but not limited to, S. aureus ATCC 29213, E. faecalis ATCC 29212, and S. pneumoniae, S. aureus strains SA-1199, SA-1199B, SA-8325-4, and SA-K2068. S. aureus ATCC 29213, E. faecalis ATCC 29212, and S. pneumoniae ATCC 10015 were obtained from the American Type Culture Collection (Manassas, Va.). S. aureus strains SA-1199 (clinical isolate, susceptible), SA-1199B (SA-1199, NorA overproducing, also has A116E GrlA mutation), SA-8325-4 (NCTC 8325 cured of prophages), SA-K2068 (SA-8325-4, non-NorA multidrug efflux pump overproducing mutation) were obtained from Glenn Kaatz (Kaatz et al., “Identification and characterization of a novel efflux-related multidrug resistance phenotype in Staphylococcus aureus”, J. Antimicrob. Chemother. 50:833-838 (2002); 1993; Kaatz et al., “Phenothiazines and thioxanthenes inhibit multidrug efflux pump activity in Staphylococcus aureus”, Antimicrob. Agents Chemother. 47:719-726, Kaatz et al., “Efflux-mediated fluoroquinolone resistance in Staphylococcus aureus. Antimicrob. Agents Chemother.”, 37:1086-1094, 1993)).
(§2) 3% sterile laked horse blood (Quad Five, Ryegate, Mont.) was added to assays for E. faecalis and S. Pneumoniae. A final concentration of 1% DMSO was present in all assays.

S. aureus SA-8325-4 = assay: MIC of fluoroquinolones with and without EPI; conditions: Staphylococcus aureus, SA83254, read-out: MIC of antibacterial agent, EPI none
Source text: as §1, §2

[2] = tested on: S. aureus SA-1199B (NorA overproducing); assay: MIC of fluoroquinolones with and without EPI; conditions: S. aureus SA-1199B (NorA overproducer, GrlA A116E); no EPI
Source text: as §1, §2
(§3) Recent more hydrophobic fluoroquinolones such as gatifloxacin and moxifloxacin are less well recognized by NorA; however, recently one other pump in S. aureus has been described which also recognizes hydrophobic fluoroquinolones (Kaatz et al. 2002, supra). To investigate the potential of A-106 and C-9 to block the efflux of several fluoroquinolones in cells with constituitively over-expressed efflux pumps, we used S. aureus strains SA-1199B and K2068 (Table 3). […] Kaatz et al., “Phenothiazines and thioxanthenes inhibit multidrug efflux pump activity in Staphylococcus aureus”, Antimicrob. Agents Chemother. 47:719-726 (2003).

[3] = tested on: S. aureus SA-K2068 (non-NorA multidrug efflux pump overproducing); assay: microbe, parasite or virus in culture; conditions: S. aureus K2068 (non-NorA MDR pump overproducer); no EPI
Source text: as §1, §2, §3

[4] = tested on: S. aureus clinical isolates; assay: MIC90 studies: fluoroquinolone susceptibility of clinical isolate panel with EPI; conditions: Staphylococcus aureus
Description: (§4) Susceptibility studies with large panels of resistant clinical isolates were performed at Focus Technologies, Herndon, Va. according to NCCLS protocols (National Committee for Clinical Laboratory Standards, supra).
(§5) To be useful in combination therapy, an EPI needs to substantially reduce the MIC of an antibiotic to within the range of clinical susceptibility. Because many different resistance mechanisms are often present in clinical isolates, including the likelihood of multiple target-based mutations in addition to efflux mutations, the barrier to antibiotic efficacy is much greater. […] Oxacillin and vancomycin MICs were also determined to identify which isolates were methicillin-resistant (S. aureus) and vancomycin-resistant (E. faecalis).

[5] = tested on: E. faecalis clinical isolates; assay: as above; conditions: Enterococcus faecalis
Description: as §4, §5

[6] = ATCC29213, antibacterial agent alone, read-out: MIC, No EPI

## [Br-].c1ccc([P+](c2ccccc2)(c2ccccc2)c2ccccc2)cc1 [tetraphenylphosphonium bromide]
S. aureus ATCC 29213; ATCC29213, read-out: MIC, No EPI, antibacterial agent alone
  MIC: 16 µg/mL
S. aureus ATCC 29213
  MIC in the presence of 4X MEC of EPI, VX-710: 4 µg/mL
  MIC in the presence of 4X MEC of EPI, VX-853: 8 µg/mL
  MIC in the presence of 4X MEC of EPI, reserpine: 8 µg/mL

## CC(=O)NC[C@H]1CN(c2ccc(N3CCOCC3)c(F)c2)C(=O)O1 [linezolid]
S. aureus ATCC 29213; [6]
  MIC: 4 µg/mL
S. aureus ATCC 29213
  MIC in the presence of 4X MEC of EPI, VX-710: 4 µg/mL
  MIC in the presence of 4X MEC of EPI, VX-853: 4 µg/mL
  MIC in the presence of 4X MEC of EPI, reserpine: 4 µg/mL

## CC[C@H]1OC(=O)[C@H](C)[C@@H](O[C@H]2C[C@@](C)(OC)[C@@H](O)[C@H](C)O2)[C@H](C)[C@@H](O[C@@H]2O[C@H](C)C[C@H](N(C)C)[C@H]2O)[C@](C)(O)C[C@@H](C)C(=O)[C@H](C)[C@@H](O)[C@]1(C)O [erythromycin]
S. aureus ATCC 29213; [6]
  MIC: 0.25 µg/mL
S. aureus ATCC 29213
  MIC in the presence of 4X MEC of EPI, VX-710: 0.25 µg/mL
  MIC in the presence of 4X MEC of EPI, VX-853: 0.25 µg/mL
  MIC in the presence of 4X MEC of EPI, reserpine: 0.25 µg/mL

## C[C@H]1COc2c(N3CCN(C)CC3)c(F)cc3c(=O)c(C(=O)O)cn1c23 [levofloxacin]
S. aureus ATCC 29213; [6]
  MIC: 0.25 µg/mL
S. aureus ATCC 29213
  MIC in the presence of 4X MEC of EPI, VX-710: 0.125 µg/mL
  MIC in the presence of 4X MEC of EPI, VX-853: 0.125 µg/mL
  MIC in the presence of 4X MEC of EPI, reserpine: 0.125 µg/mL
[1]; Staphylococcus aureus, read-out: MIC of antibacterial agent, EPI none
  MIC: 0.125 µg/mL
S. aureus SA-8325-4
  MIC: 0.25 µg/mL

## gentamicin [reference compound]
S. aureus ATCC 29213; S. aureus ATCC 29213, no EPI
  MIC of antibacterial agent, EPI none: 0.5 µg/mL
S. aureus ATCC 29213
  MIC in the presence of 4X MEC of EPI, VX-853: 0.25 µg/mL
S. aureus ATCC 29213; antibacterial agent alone
  MIC, No EPI: 0.5 µg/mL
[2]
  MIC of antibacterial agent, EPI none: 0.5 µg/mL
[3]
  MIC of antibacterial agent, EPI none: 0.063 µg/mL
[1]; S. aureus SA-1199, no EPI
  MIC of antibacterial agent, EPI none: 0.5 µg/mL

## CO/N=C(\C(=O)N[C@@H]1C(=O)N2C(C(=O)O)=C(CSc3nc(=O)c(=O)[nH]n3C)CS[C@H]12)c1csc(N)n1 [ceftriaxone]
S. aureus ATCC 29213; [6]
  MIC: 4 µg/mL
S. aureus ATCC 29213
  MIC in the presence of 4X MEC of EPI, VX-710: 4 µg/mL
  MIC in the presence of 4X MEC of EPI, VX-853: 4 µg/mL
  MIC in the presence of 4X MEC of EPI, reserpine: 4 µg/mL

## Cc1onc(-c2ccccc2)c1C(=O)N[C@@H]1C(=O)N2[C@@H]1SC(C)(C)[C@@H]2C(=O)O [Oxacillin]
[4]; S. aureus clinical isolate 1
  MIC: 16 µg/mL
[4]; S. aureus clinical isolate 2
  MIC: > 64 µg/mL
[4]; S. aureus clinical isolate 3
  MIC: 32 µg/mL
[4]; S. aureus clinical isolate 4
  MIC: > 64 µg/mL
[4]; S. aureus clinical isolate 5
  MIC: 2 µg/mL
[4]; S. aureus clinical isolate 6
  MIC: 16 µg/mL
[4]; S. aureus clinical isolate 7
  MIC: 2 µg/mL
[4]; S. aureus clinical isolate 8
  MIC: 4 µg/mL
[4]; S. aureus clinical isolate 9
  MIC: 2 µg/mL
[4]; S. aureus clinical isolate 10
  MIC: > 64 µg/mL
[4]; S. aureus clinical isolate 11
  MIC: > 64 µg/mL
[4]; S. aureus clinical isolate 12
  MIC: 2 µg/mL
[4]; S. aureus clinical isolate 13
  MIC: > 64 µg/mL
[4]; S. aureus clinical isolate 14
  MIC: > 64 µg/mL
[4]; S. aureus clinical isolate 15
  MIC: > 64 µg/mL

## CO[C@@H]1[C@@H](OC(N)=O)[C@@H](O)[C@H](Oc2ccc3c(O)c(NC(=O)c4ccc(O)c(CC=C(C)C)c4)c(=O)oc3c2C)OC1(C)C [novobiocin]
S. aureus ATCC 29213; [6]
  MIC: 0.125 µg/mL
S. aureus ATCC 29213
  MIC in the presence of 4X MEC of EPI, VX-710: 0.063 µg/mL
  MIC in the presence of 4X MEC of EPI, VX-853: 0.063 µg/mL
  MIC in the presence of 4X MEC of EPI, reserpine: 0.063 µg/mL

## CC[C@H]1OC(=O)[C@H](C)[C@@H](O[C@H]2C[C@@](C)(OC)[C@@H](O)[C@H](C)O2)[C@H](C)[C@@H](O[C@@H]2O[C@H](C)C[C@H](N(C)C)[C@H]2O)[C@](C)(O)C[C@@H](C)CN(C)[C@H](C)[C@@H](O)[C@]1(C)O [azithromycin]
S. aureus ATCC 29213; [6]
  MIC: 1 µg/mL
S. aureus ATCC 29213
  MIC in the presence of 4X MEC of EPI, VX-710: 1 µg/mL
  MIC in the presence of 4X MEC of EPI, VX-853: 1 µg/mL
  MIC in the presence of 4X MEC of EPI, reserpine: 1 µg/mL

## O=C(N[C@H](CO)[C@H](O)c1ccc([N+](=O)[O-])cc1)C(Cl)Cl [chloramphenicol]
S. aureus ATCC 29213; [6]
  MIC: 8 µg/mL
S. aureus ATCC 29213
  MIC in the presence of 4X MEC of EPI, VX-710: 8 µg/mL
  MIC in the presence of 4X MEC of EPI, VX-853: 8 µg/mL
  MIC in the presence of 4X MEC of EPI, reserpine: 8 µg/mL

## CN[C@H](CC(C)C)C(=O)N[C@H]1C(=O)N[C@@H](CC(N)=O)C(=O)N[C@H]2C(=O)N[C@H]3C(=O)N[C@H](C(=O)N[C@H](C(=O)O)c4cc(O)cc(O)c4-c4cc3ccc4O)[C@H](O)c3ccc(c(Cl)c3)Oc3cc2cc(c3O[C@@H]2O[C@H](CO)[C@@H](O)[C@H](O)[C@H]2O[C@H]2C[C@](C)(N)[C@H](O)[C@H](C)O2)Oc2ccc(cc2Cl)[C@H]1O [Vancomycin]
[5]; read-out: MIC, No EPI, E. faecalis clinical isolate 1
  MIC: 1 µg/mL
[5]; read-out: MIC, No EPI, E. faecalis clinical isolate 2
  MIC: 4 µg/mL
[5]; read-out: MIC, No EPI, E. faecalis clinical isolate 3
  MIC: > 256 µg/mL
[5]; read-out: MIC, No EPI, E. faecalis clinical isolate 4
  MIC: 1 µg/mL
[5]; read-out: MIC, No EPI, E. faecalis clinical isolate 5
  MIC: 2 µg/mL
[5]; read-out: MIC, No EPI, E. faecalis clinical isolate 6
  MIC: 2 µg/mL
[5]; read-out: MIC, No EPI, E. faecalis clinical isolate 7
  MIC: 1 µg/mL
[5]; read-out: MIC, No EPI, E. faecalis clinical isolate 8
  MIC: 128 µg/mL
[5]; read-out: MIC, No EPI, E. faecalis clinical isolate 9
  MIC: 1 µg/mL
[5]; read-out: MIC, No EPI, E. faecalis clinical isolate 10
  MIC: 2 µg/mL
[5]; read-out: MIC, No EPI, E. faecalis clinical isolate 11
  MIC: 16 µg/mL
[5]; read-out: MIC, No EPI, E. faecalis clinical isolate 12
  MIC: 4 µg/mL
[5]; read-out: MIC, No EPI, E. faecalis clinical isolate 13
  MIC: 2 µg/mL
[5]; read-out: MIC, No EPI, E. faecalis clinical isolate 14
  MIC: 1 µg/mL
[5]; read-out: MIC, No EPI, E. faecalis clinical isolate 15
  MIC: 4 µg/mL
[5]; read-out: MIC, No EPI, E. faecalis clinical isolate 16
  MIC: 0.5 µg/mL
[5]; read-out: MIC, No EPI, E. faecalis clinical isolate 17
  MIC: 4 µg/mL
[5]; read-out: MIC, No EPI, E. faecalis clinical isolate 18
  MIC: > 256 µg/mL
[5]; read-out: MIC, No EPI, E. faecalis clinical isolate 19
  MIC: 2 µg/mL
[5]; read-out: MIC, No EPI, E. faecalis clinical isolate 20
  MIC: 2 µg/mL
[5]; read-out: MIC, No EPI, E. faecalis clinical isolate 21
  MIC: 1 µg/mL
[5]; read-out: MIC, No EPI, E. faecalis clinical isolate 22
  MIC: 1 µg/mL
[5]; read-out: MIC, No EPI, E. faecalis clinical isolate 23
  MIC: 2 µg/mL
[5]; read-out: MIC, No EPI, E. faecalis clinical isolate 24
  MIC: 1 µg/mL
[5]; read-out: MIC, No EPI, E. faecalis clinical isolate 25
  MIC: 1 µg/mL
[5]; read-out: MIC, No EPI, E. faecalis clinical isolate 26
  MIC: > 256 µg/mL
